Tests used:
[1] = biological target: T1, Trypsin (type 1× from porcine pancreas) (Sus scrofa, UniProt P00761); assay: Trypsin Assay; assay type: biochemical; parameters: % Inhibition Trypsin II @ 1: concentration or dose not given beside the values; details: for % Inhibition Trypsin II (30 µM): at 30 µM; for % Inhibition Trpysin II (100 νM): inhibitor at 100 νM
T1 construct: Trypsin (5 ug/ml; type 1× from porcine pancreas); purchased Sigma, St. Louis Mo; host or cells: porcine pancreas

[2] = biological target: T2, recombinant soluble tissue factor and recombinant human factor VIIa (TF-VIIa) (Homo sapiens, UniProt P08709); assay: TF-VIIa Assay; assay type: biochemical; details: for % Inhibition TF-VIIa (100 νM): inhibitor at 100 νM
T2 construct: conversion of coagulation factor VII to VIIa by Xa; purchased American Diagnostica, Greenwich Conn; host or cells: factor VIIa purchased; soluble TF made in house in E. coli
T2 sequence (P08709 213-466 limits assumed): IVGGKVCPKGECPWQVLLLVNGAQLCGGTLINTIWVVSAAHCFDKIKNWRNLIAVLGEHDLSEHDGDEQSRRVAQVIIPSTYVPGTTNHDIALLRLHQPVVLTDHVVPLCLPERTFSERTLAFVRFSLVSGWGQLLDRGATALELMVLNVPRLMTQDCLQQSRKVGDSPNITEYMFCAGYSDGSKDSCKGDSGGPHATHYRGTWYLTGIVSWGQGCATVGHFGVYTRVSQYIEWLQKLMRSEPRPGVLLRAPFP
T2 sequence (P08709 61-212 limits assumed): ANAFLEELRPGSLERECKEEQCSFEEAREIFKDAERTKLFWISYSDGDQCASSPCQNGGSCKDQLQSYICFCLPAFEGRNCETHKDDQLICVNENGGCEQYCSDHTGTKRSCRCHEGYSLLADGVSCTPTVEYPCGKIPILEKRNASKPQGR
T2 sequence (P13726 33-251 partner limits assumed): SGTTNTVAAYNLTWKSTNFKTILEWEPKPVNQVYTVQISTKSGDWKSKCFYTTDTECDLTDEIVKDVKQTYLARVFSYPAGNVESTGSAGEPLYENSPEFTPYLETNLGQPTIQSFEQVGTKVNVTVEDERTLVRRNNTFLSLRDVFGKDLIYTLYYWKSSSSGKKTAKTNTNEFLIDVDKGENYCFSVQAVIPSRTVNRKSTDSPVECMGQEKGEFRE

T1 sequence (P00761 9-231): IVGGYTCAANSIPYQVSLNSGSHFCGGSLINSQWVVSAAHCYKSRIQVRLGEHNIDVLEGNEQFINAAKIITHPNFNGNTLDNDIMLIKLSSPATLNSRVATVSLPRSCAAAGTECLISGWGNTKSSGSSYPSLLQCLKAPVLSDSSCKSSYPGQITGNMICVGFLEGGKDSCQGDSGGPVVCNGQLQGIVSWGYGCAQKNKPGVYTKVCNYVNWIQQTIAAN

SMILES | % Inhibition Trypsin II @ 1 [1] | % Inhibition TF-VIIa (100 νM) [2] | % Inhibition Trpysin II (100 νM) [1] | also measured
Cc1c(Cl)nc(NCCc2ccc(Cl)cc2)c(=O)n1CC(=O)NCc1ccc(C(=N)N)cc1 [1471-2] |  |  |  | % Inhibition Trypsin II (30 µM) [1]: 0%
N=C(N)c1ccc(CNC(=O)Cn2c(-c3ccc4c(c3)OCO4)c(Cl)nc(NCCc3ccc(Cl)cc3)c2=O)cc1 [1471-42] |  |  |  | IC50 ([2]; read-out: IC50 TF-VIIa): 10.5 µM
N=C(N)c1ccc(CNC(=O)Cn2c(-c3ccccc3)c(Cl)nc(NCc3ccc(OC(F)(F)F)cc3)c2=O)cc1 [1507-04] | 9% @ 1 |  |  | 
N=C(N)c1ccc(CNC(=O)Cn2c(-c3ccccc3)c(Cl)nc(NCCc3ccc(Br)cc3)c2=O)cc1 [1507-06] | 8% @ 1 |  |  | 
N=C(N)c1ccc(CNC(=O)Cn2c(-c3ccccc3)c(Cl)nc(NC(Cc3ccccc3)c3ccccc3)c2=O)cc1 (stereo not shown) [1507-07] | 7% @ 1 |  |  | 
COc1ccc(CCNc2nc(Cl)c(-c3ccccc3)n(CC(=O)NCc3ccc(C(=N)N)cc3)c2=O)cc1 [1507-11] | 27% @ 1 |  |  | 
COc1cccc(CCNc2nc(Cl)c(-c3ccccc3)n(CC(=O)NCc3ccc(C(=N)N)cc3)c2=O)c1 [1507-12] | 12% @ 1 |  |  | 
COc1ccc(CNc2nc(Cl)c(-c3ccccc3)n(CC(=O)NCc3ccc(C(=N)N)cc3)c2=O)cc1 [1507-13] | 8% @ 1 |  |  | 
N=C(N)c1ccc(CNC(=O)Cn2c(-c3ccccc3)c(Cl)nc(NCc3ccccc3C(F)(F)F)c2=O)cc1 [1507-15] | 11% @ 1 |  |  | 
N=C(N)c1ccc(CNC(=O)Cn2c(-c3ccccc3)c(Cl)nc(NCCc3cccs3)c2=O)cc1 [1507-18] | 6% @ 1 |  |  | 
N=C(N)c1ccc(CNC(=O)Cn2c(-c3ccccc3)c(Cl)nc(NCc3ccc(Cl)cc3Cl)c2=O)cc1 [1507-22] | 8% @ 1 |  |  | 
N=C(N)c1ccc(CNC(=O)Cn2c(-c3ccccc3)c(Cl)nc(NCc3ccccn3)c2=O)cc1 [1507-24] |  |  |  | % Inhibition Trypsin II (30 µM) [1]: 25% @ 30
N=C(N)c1ccc(CNC(=O)Cn2c(-c3ccccc3)c(Cl)nc(NC3CCCC3)c2=O)cc1 [1507-25] | 60% @ 1 |  |  | 
N=C(N)c1ccc(CNC(=O)Cn2c(-c3ccccc3)c(Cl)nc(NCc3ccc(F)cc3F)c2=O)cc1 [1507-26] | 11% @ 1 |  |  | 
N=C(N)c1ccc(CNC(=O)Cn2c(-c3ccccc3)c(Cl)nc(NCc3cccc4ccccc34)c2=O)cc1 [1507-28] | 1% @ 1 |  |  | 
N=C(N)c1ccc(CNC(=O)Cn2c(-c3ccccc3)c(Cl)nc(NCc3ccc(Br)cc3)c2=O)cc1 [1507-30] | 0% @ 1 |  |  | 
N=C(N)c1ccc(CNC(=O)Cn2c(-c3ccccc3)c(Cl)nc(NC3CC3)c2=O)cc1 [1507-31] | 2% @ 1 |  |  | 
CC(C)CNc1nc(Cl)c(-c2ccccc2)n(CC(=O)NCc2ccc(C(=N)N)cc2)c1=O [1507-32] | 0% @ 1 |  |  | 
C[C@H](Nc1nc(Cl)c(-c2ccccc2)n(CC(=O)NCc2ccc(C(=N)N)cc2)c1=O)c1ccccc1 [1507-34] | 0% @ 1 |  |  | 
N=C(N)c1ccc(CNC(=O)Cn2c(-c3ccccc3)c(Cl)nc(NCc3cccc(Cl)c3)c2=O)cc1 [1507-38] | 0% @ 1 |  |  | 

SMILES | % Inhibition Trypsin II @ 1 [1] | % Inhibition TF-VIIa (100 νM) [2] | % Inhibition Trpysin II (100 νM) [1] | also measured
N=C(N)c1ccc(CNC(=O)Cn2c(-c3ccccc3)c(Cl)nc(NCc3cccc(F)c3)c2=O)cc1 [1507-42] | 0% @ 1 |  |  | 
Cc1ccc(CCNc2nc(Cl)c(-c3ccccc3)n(CC(=O)NCc3ccc(C(=N)N)cc3)c2=O)cc1 [1507-45] | 0% @ 1 |  |  | 
N=C(N)NCC#CCNC(=O)Cn1c(-c2ccccc2)cnc(NCCc2ccccc2)c1=O [Example 36] |  |  |  | % Inhibition Trypsin II (30 µM) [1]: 30%
CC(C)Nc1nc(Cl)c(-c2cccc([N+](=O)[O-])c2)n(CC(=O)NCc2ccc(C(N)=NO)cc2)c1=O [Example 61] |  |  |  | % Inhibition Trypsin II (30 µM) [1]: 10%
N=C(N)c1ccc(CNC(=O)Cn2c(-c3cccc(N)c3)c(Cl)nc(NCCc3ccccc3)c2=O)cc1 [Example 86] | 78% @ 1 |  |  | 
Nc1cccc(-c2c(Cl)nc(NC3CCC3)c(=O)n2CC(=O)NCCc2ccccc2)c1 [Example 89] |  |  |  | % Inhibition Trypsin II (30 µM) [1]: 9% @ 30
Nc1cccc(-c2c(Cl)nc(NC3CCC3)c(=O)n2CC(=O)NCc2ccccc2)c1 [Example 99] |  |  |  | % Inhibition Trypsin II (30 µM) [1]: 7% @ 30
N=C(N)c1ccc(CNC(=O)Cn2c(-c3ccccc3)c(Cl)nc(NCC3CC3)c2=O)cc1 [Example 1517-43] |  |  |  | % Inhibition Trypsin II (30 µM) ([1]; cells with % sign): 43%
Cc1c(Cl)nc(NCc2ccccc2)c(=O)n1CC(=O)NCCc1ccncc1 [Example E-0001] |  | 0% | 0% | 
Cc1c(Cl)nc(NCCc2ccccc2)c(=O)n1CC(=O)NCCc1ccncc1 [Example E-0002] |  | 0% | 0% | 
Cc1c(Cl)nc(NCCc2cccc(Cl)c2)c(=O)n1CC(=O)NCCc1ccncc1 [Example E-0003] |  | 0% | 0% | 
Cc1c(Cl)nc(NCCc2ccc(Cl)cc2)c(=O)n1CC(=O)NCCc1ccncc1 [Example E-0004] |  | 0% | 0% | 
Cc1c(Cl)nc(NCCc2cccnc2)c(=O)n1CC(=O)NCCc1ccncc1 [Example E-0005] |  | 0% | 0% | 
Cc1c(Cl)nc(NCCc2ccncc2)c(=O)n1CC(=O)NCCc1ccncc1 [Example E-0006] |  | 2% | 1% | 
Cc1c(Cl)nc(NCCN2CCOCC2)c(=O)n1CC(=O)NCCc1ccncc1 [Example E-0007] |  | 0% | 0% | 
Cc1c(Cl)nc(NCc2ccncc2)c(=O)n1CC(=O)NCCc1ccncc1 [Example E-0008] |  | 0% | 0% | 
O=C(Cn1c(-c2ccccc2)c(Cl)nc(NCc2ccccc2)c1=O)NCCc1ccncc1 [Example E-0009] |  | 0% | 1% | 
O=C(Cn1c(-c2ccccc2)c(Cl)nc(NCCc2ccccc2)c1=O)NCCc1ccncc1 [Example E-0010] |  | 0% | 0% | 
O=C(Cn1c(-c2ccccc2)c(Cl)nc(NCCc2cccc(Cl)c2)c1=O)NCCc1ccncc1 [Example E-0011] |  | 0% | 0% | 
O=C(Cn1c(-c2ccccc2)c(Cl)nc(NCCc2ccc(Cl)cc2)c1=O)NCCc1ccncc1 [Example E-0012] |  | 0% | 0% | 

SMILES | % Inhibition Trypsin II @ 1 [1] | % Inhibition TF-VIIa (100 νM) [2] | % Inhibition Trpysin II (100 νM) [1] | also measured
O=C(Cn1c(-c2ccccc2)c(Cl)nc(NCCc2cccnc2)c1=O)NCCc1ccncc1 [Example E-0013] |  | 0% | 1% | 
O=C(Cn1c(-c2ccccc2)c(Cl)nc(NCCc2ccncc2)c1=O)NCCc1ccncc1 [Example E-0014] |  | 0% | 0% | 
O=C(Cn1c(-c2ccccc2)c(Cl)nc(NCCN2CCOCC2)c1=O)NCCc1ccncc1 [Example E-0015] |  | 0% |  | 
O=C(Cn1c(-c2ccccc2)c(Cl)nc(NCc2ccncc2)c1=O)NCCc1ccncc1 [Example E-0016] |  | 0% | 4% | 
O=C(Cn1c(-c2ccc(Cl)cc2)c(Cl)nc(NCc2ccccc2)c1=O)NCCc1ccncc1 [Example E-0017] |  | 0% | 1% | 
O=C(Cn1c(-c2ccc(Cl)cc2)c(Cl)nc(NCCc2ccccc2)c1=O)NCCc1ccncc1 [Example E-0018] |  | 1% | 4% | 
O=C(Cn1c(-c2ccc(Cl)cc2)c(Cl)nc(NCCc2cccc(Cl)c2)c1=O)NCCc1ccncc1 [Example E-0019] |  | 0% | 2% | 
O=C(Cn1c(-c2ccc(Cl)cc2)c(Cl)nc(NCCc2ccc(Cl)cc2)c1=O)NCCc1ccncc1 [Example E-0020] |  | 0% | 4% | 
O=C(Cn1c(-c2ccc(Cl)cc2)c(Cl)nc(NCCc2cccnc2)c1=O)NCCc1ccncc1 [Example E-0021] |  | 0% | 5% | 
O=C(Cn1c(-c2ccc(Cl)cc2)c(Cl)nc(NCCc2ccncc2)c1=O)NCCc1ccncc1 [Example E-0022] |  | 0% | 2% | 
O=C(Cn1c(-c2ccc(Cl)cc2)c(Cl)nc(NCCN2CCOCC2)c1=O)NCCc1ccncc1 [Example E-0023] |  | 0% | 1% | 
O=C(Cn1c(-c2ccc(Cl)cc2)c(Cl)nc(NCc2ccncc2)c1=O)NCCc1ccncc1 [Example E-0024] |  | 0% | 1% | 
O=C(Cn1c(-c2ccc(Cl)cc2)c(Cl)nc(NCc2ccccc2)c1=O)NCCc1ccncc1 [Example E-0025] |  | 0% | 3% | 
O=C(Cn1c(-c2ccc(Cl)cc2)c(Cl)nc(NCCc2ccccc2)c1=O)NCCc1ccncc1 [Example E-0026] |  | 0% | 3% | 
O=C(Cn1c(-c2ccc(Cl)cc2)c(Cl)nc(NCCc2ccc(Cl)cc2)c1=O)NCCc1ccncc1 [Example E-0028] |  | 0% | 3% | 
O=C(Cn1c(-c2ccc(Cl)cc2)c(Cl)nc(NCCc2cccnc2)c1=O)NCCc1ccncc1 [Example E-0029] |  | 0% | 2% | 
O=C(Cn1c(-c2ccc(Cl)cc2)c(Cl)nc(NCCc2ccncc2)c1=O)NCCc1ccncc1 [Example E-0030] |  | 0% | 4% | 
O=C(Cn1c(-c2ccc(Cl)cc2)c(Cl)nc(NCc2ccncc2)c1=O)NCCc1ccncc1 [Example E-0032] |  | 0% | 3% | 
COc1ccc(-c2c(Cl)nc(NCCc3ccccc3)c(=O)n2CC(=O)NCCc2ccncc2)cc1 [Example E-0100] |  |  | 12% | 
